Source: US20170095423A1, “Use of selectively moisture-adjusted tabletting material in the production of mechanically stable tablets which contain at least one hydrate-forming active substance and/or adjuvant relevant to the mechanical stability of the tablets, particularly arginine-containing tablets” (Boehringer Ingelheim International GmBH, priority 2012, published 2017)

Test: sorption/desorption (DVS) behaviour: phase transition of the hydrate-forming agent L-arginine
Assay type: physicochemical
Source text: DVS measurement: measurement of the water absorption of a sample as a function of relative humidity and temperature using a highly sensitive sorption scale.
Phase transition in hydrate-forming active substances or adjuvants: the relative humidity at which the hydrate-forming agent water (particularly water of crystallization) is incorporated and changes from an anhydrate or a lower-valency form into a higher valency hydrate form, or vice versa. This relative humidity is characteristic of the respective hydrate-forming agent; if a hydrate-forming agent incorporates water in several steps, there are several phase transitions in this substance. For example: phase transition for pure L-arginine: 38% r.h./25° C. with incorporation of about 1.5 mol of water per 1 mol of L-arginine; in mixtures comprising L-arginine the phase transition is typically between 38 and 40% r.h./25° C., but in the test formulation described herein by way of example it starts, at latest, at 40% r.h./25° C.
(sorption and desorption cycle; change water content vs. rel. humidity). Tablets produced from tabletting material pre-conditioned at 25° C./45% r.h. were subsequently stored in very different humidity ranges (arrows; for discussion of the cases 1-4 see the description herein).

Which results are given for `N=C(N)NCCC[C@H](N)C(=O)O` [L-arginine]?
phase transition (relative humidity at which water of crystallization is incorporated), sorption cycle (25° C.): 38 % r.h.; phase transition in the desorption cycle (release of water of crystallisation) (25° C.): < 30 % r.h.; water incorporated at phase transition (38% r.h./25° C.): about 1.5 mol of water per 1 mol of L-arginine; relative humidity to ensure the phase transition, sorption cycle (at 40° C.): about 47 % r.h.
